Data reported in patent US4649198A, “Imidazo(1,5-a)pyrimidine derivatives and their use as antimycotic agents” (Kyorin Pharmaceutical Co., Ltd., priority 1983, dated 1987).
Values after ≈ are worked out from the molar mass of the structure shown.

Tests used:
Experiment in all cases: antifungal activity, standard agar dilution streak method
Type in all cases: cell-based
[1] = system: Aspergillus fumigatus MTU-06002; details: MTU06002, read-out: Minimum Inhibitory Concentration
Description: (§1) The antifungal activity of the compound of the present invention was assayed by the standard agar dilution streak method against fungi.

Candida albicans 3147 = details: read-out: Minimum Inhibitory Concentration
Description: as §1

[2] = system: Candida albicans IFO-1388; details: IFO1388, read-out: Minimum Inhibitory Concentration
Description: as §1

[3] = system: Candida albicans IFO-1594; details: IFO1594, read-out: Minimum Inhibitory Concentration
Description: as §1

Candida albicans KYF-602 = details: KYF602, read-out: Minimum Inhibitory Concentration
Description: as §1

[4] = system: Candida albicans MTU-12124; details: MTU12124, read-out: Minimum Inhibitory Concentration
Description: as §1

[5] = system: Candida stellatidea IFO-1398; details: IFO1398, read-out: Minimum Inhibitory Concentration
Description: as §1

Microsporum canis 20010 = details: read-out: Minimum Inhibitory Concentration
Description: as §1

[6] = system: Trichophyton mentagrophytes MTU-19003; details: MTU19003, read-out: Minimum Inhibitory Concentration
Description: as §1

[7] = system: Trichophyton mentagrophytes MTU-19005; details: MTU19005, read-out: Minimum Inhibitory Concentration
Description: as §1

Row | SMILES | MIC [1] [µg/mL] | MIC (Candida albicans 3147) [µg/mL] | MIC [2] [µg/mL] | MIC [3] [µg/mL] | MIC (Candida albicans KYF-602) [µg/mL] | MIC [4] [µg/mL] | MIC [5] [µg/mL] | MIC (Microsporum canis 20010) [µg/mL] | MIC [6] [µg/mL] | MIC [7] [µg/mL]
1 | Clc1ccc(-c2ncc3nc(Cl)cc(Cl)n23)cc1 [Ex. 1, 2,4-dichloro-6-(4-chlorophenyl)imidazo[1,5-a]pyrimidine] | 6.25 (≈ 20.9 µM) | 6.25 (≈ 20.9 µM) | 1.56 (≈ 5.23 µM) | 3.13 (≈ 10.5 µM) | 6.25 (≈ 20.9 µM) | 3.13 (≈ 10.5 µM) | 0.2 (≈ 0.67 µM) | 0.78 (≈ 2.61 µM) | 1.56 (≈ 5.23 µM) | 0.78 (≈ 2.61 µM)
2 | CC(c1ccccc1)c1ncc2nc(Cl)cc(Cl)n12 (centres unmarked) [Ex. 18] | 25 (≈ 85.6 µM) | 3.13 (≈ 10.7 µM) | 0.78 (≈ 2.67 µM) | 3.13 (≈ 10.7 µM) | 12.5 (≈ 42.8 µM) | 3.13 (≈ 10.7 µM) | 3.13 (≈ 10.7 µM) | 1.56 (≈ 5.34 µM) | 1.56 (≈ 5.34 µM) | 1.56 (≈ 5.34 µM)
3 | Clc1ccc(-c2ncc3nc(Cl)cc(Cl)n23)c(Cl)c1 [Ex. 9] | 12.5 (≈ 37.5 µM) | 1.56 (≈ 4.68 µM) | 0.78 (≈ 2.34 µM) | 3.13 (≈ 9.4 µM) | 6.25 (≈ 18.8 µM) | 1.56 (≈ 4.68 µM) | 0.78 (≈ 2.34 µM) | 1.56 (≈ 4.68 µM) | 1.56 (≈ 4.68 µM) | 0.78 (≈ 2.34 µM)
4 | Clc1cc(Cl)n2c(-c3ccc(Br)cc3)ncc2n1 [Ex. 5] | 6.25 (≈ 18.2 µM) | 1.56 (≈ 4.55 µM) | 1.56 (≈ 4.55 µM) | 3.13 (≈ 9.13 µM) | 6.25 (≈ 18.2 µM) | 3.13 (≈ 9.13 µM) | 0.2 (≈ 0.583 µM) | 0.78 (≈ 2.27 µM) | 1.56 (≈ 4.55 µM) | 0.78 (≈ 2.27 µM)
5 | Clc1ccc(Cc2ncc3nc(Cl)cc(Cl)n23)c(Cl)c1 [Ex. 20] | > 6.25 | 0.78 (≈ 2.25 µM) | 0.78 (≈ 2.25 µM) | 0.78 (≈ 2.25 µM) | > 6.25 | 0.78 (≈ 2.25 µM) | 0.2 (≈ 0.576 µM) | 0.78 (≈ 2.25 µM) | 1.56 (≈ 4.5 µM) | 0.78 (≈ 2.25 µM)
6 | Clc1cc(Cl)n2c(C3CCCCC3)ncc2n1 [Ex. 23] | 50 (≈ 185 µM) | 1.56 (≈ 5.77 µM) | 0.2 (≈ 0.74 µM) | 0.39 (≈ 1.44 µM) | 3.13 (≈ 11.6 µM) | 6.25 (≈ 23.1 µM) | 3.13 (≈ 11.6 µM) | 1.56 (≈ 5.77 µM) | 3.13 (≈ 11.6 µM) | 1.56 (≈ 5.77 µM)
7 | Clc1cc(Cl)n2c(-c3ccc(Cl)c(Cl)c3)ncc2n1 [Ex. 7] | > 100 | 1.56 (≈ 4.68 µM) | 1.56 (≈ 4.68 µM) | 1.56 (≈ 4.68 µM) | 3.13 (≈ 9.4 µM) | 1.56 (≈ 4.68 µM) | 0.39 (≈ 1.17 µM) | 0.39 (≈ 1.17 µM) | 0.78 (≈ 2.34 µM) | 139 (≈ 417 µM)
8 | Clc1cc(Cl)n2c(-c3ccc(I)cc3)ncc2n1 [Ex. 21] | – | 1.56 (≈ 4 µM) | 3.13 (≈ 8.03 µM) | 6.25 (≈ 16 µM) | > 6.25 | 1.56 (≈ 4 µM) | 1.56 (≈ 4 µM) | – | – | –
9 | Clc1ccc(Cc2ncc3nc(Cl)cc(Cl)n23)cc1 [Ex. 16] | 3.13 (≈ 10 µM) | 1.56 (≈ 4.99 µM) | 1.56 (≈ 4.99 µM) | 1.56 (≈ 4.99 µM) | 3.13 (≈ 10 µM) | 6.25 (≈ 20 µM) | 0.78 (≈ 2.5 µM) | 0.39 (≈ 1.25 µM) | 1.56 (≈ 4.99 µM) | 0.2 (≈ 0.64 µM)
